Here are results for four molecules from US12109301B2, “Formulations, methods, and systems for treating genitourinary conditions” (Massachusetts Institute of Technology, priority 2017, dated 2024).

Like-named read-outs stand apart in the source and are kept apart here.

The test system of data set [1] is human ureteral smooth muscle cell (hUSMC). The experiment in a line: High throughput screening (HTS) of hUSMC relaxation (p-MLC vs unphosphorylated MLC, single-cell analysis). Format: cell-based. The settings on record: for relaxation of smooth muscle cells within a cell population: 8 hour exposure; for relaxation of smooth muscle (in words): hUSMC, prolonged exposure (8 hours). An excerpt: An HTS test was developed to quantify the contractile state of a human ureteral smooth muscle cell (hUSMC). Quantification of hUSMC relaxation was achieved by performing single-cell analysis using a computer vision (CellProfiler, Broad Institute, MA) approach that related each cell's fluorescence intensity to its state of muscle relaxation (comparing phosphorylated myosin with unphosphorylated myosin).
Primary hUMSCs were harvested from patients and cultured. There were about 10,000 cells per well, and 100 μL of media per well. Each well represented one experiment, and 250 nL of drug per well was delivered with DMSO (0.25% DMSO by volume).
In the test of this example, single cell analysis was performed on each cell (identified via computer vision) after exposure to various drugs which enable relaxation in order to correlate each cell's contractile state to the therapeutic compound, exposure time, and dose.
These correlations were determined by analyzing the fluorescent intensity of smooth muscle cells, which is related to the contractile state of the muscles. When a smooth muscle cell is signaled to contract, phosphorylation of myosin light-chain (p-MLC) occurs, which is a biomarker of muscle contraction. Conversely, when smooth muscle is left unphosphorylated (MLC), muscle relaxation occurs. Therefore, smooth muscle contraction can be computed from the proportion of p-MLC to unphosphorylated-MLC.
The tested agents included those in the following table.

For data set [2], the system named is whole porcine ureters. The experiment in a line: Bench top ex vivo model, phenylephrine-stimulated contractions, intraluminal delivery. Details: species or system pig. As to the method: An ex vivo bench top model was designed to permit the testing of whole ureteral segments. Flow through the ureteral segments was regulated, and ranged from 0.25 mL/minute to 60 mL/minute. […] The intraluminal reservoirs contained either preheated saline buffer or dilutions of any candidate therapeutic agent.
The pounds per square inch (PSI) pressure readings were obtained using a fiber-optic pressure catheter.
For this test, a ureter was prepared through intraluminal delivery of saline (Krebs-Henseleit Buffer) (BUF) only (region “i”). The experiment then was initiated and phenylephrine [10 mM] was added to the Krebs infusion to stimulate baseline peristaltic contractions seen in patients with urinary stones (region “ii”). […] [1 μM]
Cumulative ureteral contractions were plotted over the course of the entire experiment, and are depicted at FIG. 8. For this test, a ureter was prepared through intraluminal delivery of saline (BUF) only (region “i”). The experiment was initiated and phenylephrine [10 mM] was added to the Krebs infusion to stimulate baseline peristaltic contractions seen in patients with urinary stones (region “ii”).

Data set [3] concerns hUSMCs. Particulars: for Percentages of Cells that Remained Contracted After Treatment: Nifedipine 0 μM.
The procedure of data set [4]:
A commercially available surgical lubricant (SURGILUBE® lubricant) was combined with a surfactant. The surfactant was Polysorbate 20, and 0.6 mL of the Polysorbate 20 was added to 19.4 mL of the surgical lubricant.
However, more surfactant may be added to increase drug concentration, e.g., up to about 500 μM.

Data set [5] concerns hUSMCs. Format: cell-based. The settings on record: human.
For data set [6], the system named is human ureteral smooth muscle cell (hUSMC). The experiment in a line: Cell viability of hUSMC in the HTS of Example 1.
Procedure: Eight-point dosing curves were performed starting at 25 μM. […] The results were collected from three separate screening runs across three unique primary hUSMC lines (derived from three separate patients).
These relaxation percentages were derived after an 8 hour exposure.

With `CCCc1nc(C)c2c(=O)[nH]c(-c3cc(S(=O)(=O)N4CCN(CC)CC4)ccc3OCC)nn12` [Vardenafil], the cell population relaxation in data set [1] (1.56 μM or greater) was about 20%.

Turning to `C[C@@H](N)[C@H]1CC[C@H](C(=O)Nc2ccncc2)CC1` [Y-27632], the “relaxation of smooth muscle cells within a cell population” value in data set [1] (3.13 μM) was 20%. Moreover, the “hUSMC population relaxed (greatest effect, FIG. 1)” value in data set [1] (after an 8 hour exposure) is reported as “about 40%”. The “relaxation of smooth muscle (in words)” value is listed as “significant relaxation of smooth muscle” in data set [1] (listed as ROCK Y-27632) and “relatively significant cell relaxation” in data set [1] (listed as Y-27632 (ROCK)). The “reduction in contractile frequency” value in data set [2] (10 μM intraluminally) is 3 ×. In addition, the “contractile activity of ureter (in words)” value in data set [2] (10 μM intraluminally, with 10 mM phenylephrine, listed as Y27632 (ROCK)) is given as “rapid relaxation of the ureter”. For the same molecule, the “frequency of peristaltic activity (in words)” value in data set [2] (10 μM with 10 mM phenylephrine, region iii) is given as “significant decrease in frequency”. Besides, the “reduction in the slope of linear regression of cumulative contractions” value in data set [2] (10 μM, region iii vs other regions of FIG. 8) is recorded as at least 3 ×. Also, in data set [2] (phenylephrine 10 mM and saline buffer continued), the “effect after removal from the infusion (region iv)” value was “the effects were reversed”. Further, in data set [3] (25 μM alone, 8 hour exposure), the relaxation entry is recorded as “about 45%”. Moreover, the “Percentages of Cells that Remained Contracted After Treatment” value in data set [3] (ROCK 1.56 μM) worked out at 81%; in data set [3] (ROCK 3.13 μM) it was 71%; in data set [3] (ROCK 6.25 μM), 67%; in data set [3] (ROCK 12.50 μM), 59%; in data set [3] (ROCK 25.00 μM), 54%; in data set [3] (ROCK 50.00 μM), 50%. The “Percentages of Cells that Remained Contracted After Treatment” value in data set [3] (ROCK […]) was 86%. The “actual drug retention in the surgical lubricant/surfactant mixture” value in data set [4] is given as “about 200 μM”. Besides, the “Percentages of Cells that Retained Viability” value in data set [5] (3.13 μM) turned out to be 110%; in data set [5] (25 μM) it was 100%; in data set [5] (50 μM) it was 95%.

In the case of `Cc1ccc(-c2cc(C(F)(F)F)nn2-c2ccc(S(N)(=O)=O)cc2)cc1` [Celecoxib], the “relaxation of smooth muscle cells within a cell population” value was 20% in data set [1] (12.5 μM) and 30% in data set [1] (25 μM). Moreover, the “toxicity to the tested cells (false hit)” value in data set [6] is on record as “toxicity killed the tested cells”.

As to `CCOc1ccccc1OCCN[C@H](C)Cc1ccc(OC)c(S(N)(=O)=O)c1` [Tamsulosin], the cell population relaxation in data set [1] (6.25 μM or greater) is about 20%. The “relaxation of smooth muscle (in words)” value in data set [1] was “demonstrated efficacy at certain doses”.
